{"source": "ChEMBL document CHEMBL1137593", "about": "“Identification and optimisation of a series of substituted 5-pyridin-2-yl-thiophene-2-hydroxamic acids as potent histone deacetylase (HDAC) inhibitors” (Bioorg Med Chem Lett, 2007)", "key": {"MDA-MB-231": {"system": "MDA-MB-231", "experiment": "cells", "format": "functional, cell-based", "conditions": "Homo sapiens", "description": "Inhibition of MDA-MB-231 cell proliferation (mean of two experiments)"}, "Histone deacetylase 1": {"target": "Histone deacetylase 1 (Homo sapiens, UniProt Q13547)", "sequence (Q13547 whole entry)": "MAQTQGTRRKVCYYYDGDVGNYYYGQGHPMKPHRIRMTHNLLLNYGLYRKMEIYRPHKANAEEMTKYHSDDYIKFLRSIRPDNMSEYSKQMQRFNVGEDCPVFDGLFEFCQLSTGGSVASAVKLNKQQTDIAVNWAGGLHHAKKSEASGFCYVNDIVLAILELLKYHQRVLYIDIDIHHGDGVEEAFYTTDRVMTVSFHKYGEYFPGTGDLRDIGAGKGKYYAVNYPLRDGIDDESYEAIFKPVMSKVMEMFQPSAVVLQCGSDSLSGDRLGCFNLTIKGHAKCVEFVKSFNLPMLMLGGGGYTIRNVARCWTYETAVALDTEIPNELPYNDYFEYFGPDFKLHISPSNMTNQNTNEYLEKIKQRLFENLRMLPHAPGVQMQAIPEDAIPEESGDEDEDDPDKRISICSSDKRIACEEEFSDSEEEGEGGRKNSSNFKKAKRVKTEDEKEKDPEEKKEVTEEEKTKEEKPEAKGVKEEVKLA", "experiment": "Inhibition of HDAC activity measured by HDAC Fluorescent Activity Assay (mean of two experiments)", "format": "functional"}, "MCF7": {"system": "MCF7", "experiment": "Inhibition of MCF7 cell proliferation (mean of two experiments)", "format": "functional, cell-based", "conditions": "Homo sapiens"}, "HCT-116": {"system": "HCT-116", "experiment": "cells", "format": "functional, cell-based", "conditions": "Homo sapiens", "description": "Inhibition of HCT116 cell proliferation (mean of two experiments)"}, "CYP2C9": {"target": "CYP2C9 (Homo sapiens, UniProt P11712)", "sequence (P11712 whole entry)": "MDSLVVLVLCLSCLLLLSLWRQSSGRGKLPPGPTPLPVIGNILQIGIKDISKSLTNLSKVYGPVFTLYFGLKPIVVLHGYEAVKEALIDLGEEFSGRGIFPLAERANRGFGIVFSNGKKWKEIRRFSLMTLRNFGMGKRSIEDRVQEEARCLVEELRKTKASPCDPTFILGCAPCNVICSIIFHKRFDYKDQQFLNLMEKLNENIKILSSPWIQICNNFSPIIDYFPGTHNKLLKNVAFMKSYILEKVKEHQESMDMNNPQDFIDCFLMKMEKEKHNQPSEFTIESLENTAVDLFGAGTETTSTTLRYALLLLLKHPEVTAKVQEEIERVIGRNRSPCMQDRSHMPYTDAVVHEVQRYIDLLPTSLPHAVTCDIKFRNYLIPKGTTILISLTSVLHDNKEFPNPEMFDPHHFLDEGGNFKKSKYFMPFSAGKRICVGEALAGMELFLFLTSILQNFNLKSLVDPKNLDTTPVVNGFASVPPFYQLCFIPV", "experiment": "Percent inhibition of CYP450 2C9 at 1 uM concentration", "format": "ADME"}, "[1]": {"experiment": "Oral bioavailability after oral dosing at 5 mg kg-1", "format": "ADME, organism-based", "conditions": "in vivo"}, "CYP1A2": {"target": "T1, CYP1A2 (Homo sapiens, UniProt P05177)", "T1 sequence (P05177 whole entry)": "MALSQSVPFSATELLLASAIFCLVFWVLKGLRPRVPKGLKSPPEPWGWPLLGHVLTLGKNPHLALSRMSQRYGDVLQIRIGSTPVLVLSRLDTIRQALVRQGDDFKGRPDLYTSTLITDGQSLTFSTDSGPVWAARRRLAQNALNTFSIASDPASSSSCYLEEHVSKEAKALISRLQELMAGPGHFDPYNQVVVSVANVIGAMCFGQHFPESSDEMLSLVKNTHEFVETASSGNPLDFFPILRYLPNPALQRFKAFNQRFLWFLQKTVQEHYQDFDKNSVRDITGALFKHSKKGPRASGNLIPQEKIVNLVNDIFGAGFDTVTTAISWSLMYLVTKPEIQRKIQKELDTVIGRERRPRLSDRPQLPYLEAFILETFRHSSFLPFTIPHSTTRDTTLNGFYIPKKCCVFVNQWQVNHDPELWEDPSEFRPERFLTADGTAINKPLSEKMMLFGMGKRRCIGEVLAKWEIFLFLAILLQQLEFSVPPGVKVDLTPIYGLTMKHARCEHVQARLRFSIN", "experiment": "Percent inhibition of CYP450 1A2 at 1 uM concentration", "format": "ADME"}, "[2]": {"experiment": "Hepatocyte stability", "format": "ADME, cell-based", "conditions": "hepatocytes"}, "[3]": {"experiment": "Half life after i.v. dosing at 1 mg kg-1", "format": "ADME, organism-based", "set-up": "dose 1 mg kg-1, route intravenous", "conditions": "in vivo, iv"}, "[4]": {"experiment": "(§1) AUC after oral dosing at 5 mg kg-1", "format": "ADME, organism-based", "set-up": "dose 5 mg kg-1, route oral", "conditions": "rat, plasma"}, "[5]": {"experiment": "Permeability (Papp) run from pH 6.5-7.4", "format": "ADME, cell-based", "conditions": "human, Caco-2, pH 6.5"}, "[6]": {"experiment": "Bioavailability after i.p. dosing at 5 mg kg-1", "format": "ADME, organism-based", "conditions": "mouse, in vivo, ip"}, "CYP2C19": {"target": "CYP2C19 (Homo sapiens, UniProt P33261)", "sequence (P33261 whole entry)": "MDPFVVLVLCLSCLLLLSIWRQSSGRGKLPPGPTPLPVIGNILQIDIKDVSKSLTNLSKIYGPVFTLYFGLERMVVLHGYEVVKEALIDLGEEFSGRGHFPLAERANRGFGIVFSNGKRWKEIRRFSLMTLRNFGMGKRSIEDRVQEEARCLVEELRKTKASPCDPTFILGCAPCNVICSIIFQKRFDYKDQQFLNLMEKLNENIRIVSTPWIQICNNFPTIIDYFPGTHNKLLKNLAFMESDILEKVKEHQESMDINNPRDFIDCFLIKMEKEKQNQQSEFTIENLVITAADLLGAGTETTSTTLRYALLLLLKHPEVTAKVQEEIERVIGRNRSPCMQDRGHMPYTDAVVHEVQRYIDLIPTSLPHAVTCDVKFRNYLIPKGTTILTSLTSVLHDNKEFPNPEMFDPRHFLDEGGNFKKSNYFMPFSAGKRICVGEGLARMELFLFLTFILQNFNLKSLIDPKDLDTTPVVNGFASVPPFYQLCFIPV", "experiment": "Percent inhibition of CYP450 2C19 at 1 uM concentration", "format": "ADME"}, "[7]": {"experiment": "Steady state volume of distribution (Vdss) after i.v. dosing at 1 mg kg-1", "format": "ADME, organism-based", "set-up": "dose 1 mg kg-1, route intravenous", "conditions": "in vivo, iv, read-out: Vdss"}, "[8]": {"experiment": "Microsome stability: percent compound remaining", "format": "ADME", "conditions": "microsomes"}, "[9]": {"experiment": "as §1", "format": "ADME, organism-based, Plasma", "set-up": "dose 5 mg kg-1, route oral", "conditions": "mouse, plasma"}, "CYP2D6": {"target": "CYP2D6 (Homo sapiens, UniProt P10635)", "sequence (P10635 whole entry)": "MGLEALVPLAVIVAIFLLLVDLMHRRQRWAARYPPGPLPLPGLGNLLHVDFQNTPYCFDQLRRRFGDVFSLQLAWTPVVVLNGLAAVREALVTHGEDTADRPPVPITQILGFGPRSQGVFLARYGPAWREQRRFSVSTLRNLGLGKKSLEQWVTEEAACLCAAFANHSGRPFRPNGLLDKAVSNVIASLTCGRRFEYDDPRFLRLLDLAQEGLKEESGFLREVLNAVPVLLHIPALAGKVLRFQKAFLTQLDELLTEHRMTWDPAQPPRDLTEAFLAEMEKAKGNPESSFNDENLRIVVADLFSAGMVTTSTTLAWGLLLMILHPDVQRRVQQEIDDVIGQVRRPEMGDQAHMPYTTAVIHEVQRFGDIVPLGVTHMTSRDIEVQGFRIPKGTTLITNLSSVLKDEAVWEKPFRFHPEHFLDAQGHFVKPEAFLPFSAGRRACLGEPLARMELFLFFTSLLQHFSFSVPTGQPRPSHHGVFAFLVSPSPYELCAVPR", "experiment": "Percent inhibition of CYP450 2D6 at 1uM concentration", "format": "ADME"}, "[10]": {"experiment": "AUC after i.p. dosing at 5 mg kg-1", "format": "ADME, organism-based", "set-up": "dose 5 mg kg-1, route intraperitoneal", "conditions": "mouse, plasma, ip"}, "[11]": {"experiment": "Clearance after i.v. dosing at 1 mg kg-1", "format": "ADME, organism-based", "set-up": "dose 1 mg kg-1, route intravenous", "conditions": "in vivo, iv"}}, "data": [{"molecule": "O=C(NO)c1ccc(-c2ccc(CNCCCc3ccccc3)cn2)s1", "values": [{"measurement": "IC50", "setting": "MDA-MB-231", "value": 250, "unit": "nM"}, {"measurement": "IC50", "setting": "Histone deacetylase 1", "value": 18, "unit": "nM"}, {"measurement": "IC50", "setting": "MCF7", "value": 120, "unit": "nM"}]}, {"molecule": "O=C(NO)c1ccc(-c2cccc(CNCc3ccccc3)n2)s1", "values": [{"measurement": "IC50", "setting": "Histone deacetylase 1", "value": 359, "unit": "nM"}, {"measurement": "IC50", "setting": "MCF7", "value": 1900, "unit": "nM"}]}, {"molecule": "O=C(NO)c1ccc(-c2ccc(CCNCCc3ccccc3)cn2)s1", "values": [{"measurement": "IC50", "setting": "Histone deacetylase 1", "value": 31, "unit": "nM"}, {"measurement": "IC50", "setting": "MCF7", "value": 140, "unit": "nM"}]}, {"molecule": "O=C(NO)c1ccc(-c2cccs2)s1", "values": [{"measurement": "IC50", "setting": "Histone deacetylase 1", "value": 2500, "unit": "nM"}, {"measurement": "IC50", "setting": "MCF7", "value": "> 100000", "unit": "nM"}]}, {"molecule": "O=C(NO)c1ccc(-c2ccccn2)s1", "values": [{"measurement": "IC50", "setting": "MDA-MB-231", "value": 11000, "unit": "nM"}, {"measurement": "IC50", "setting": "Histone deacetylase 1", "value": 243, "unit": "nM"}, {"measurement": "IC50", "setting": "MCF7", "value": 2250, "unit": "nM"}]}, {"molecule": "O=C(NO)c1ccc(-c2ccc(CNCCc3ccccc3F)cn2)s1", "values": [{"measurement": "IC50", "setting": "Histone deacetylase 1", "value": 12, "unit": "nM"}, {"measurement": "IC50", "setting": "HCT-116", "value": 100, "unit": "nM"}, {"measurement": "IC50", "setting": "MCF7", "value": 90, "unit": "nM"}]}, {"molecule": "O=C(NO)c1ccc(-c2ccc(CNCc3ccc(-c4ccccc4)cc3)cn2)s1", "values": [{"measurement": "IC50", "setting": "Histone deacetylase 1", "value": 7, "unit": "nM"}, {"measurement": "IC50", "setting": "HCT-116", "value": 180, "unit": "nM"}, {"measurement": "IC50", "setting": "MCF7", "value": 150, "unit": "nM"}]}, {"molecule": "O=C(NO)c1ccc(-c2ccc(CNCCc3ccccc3)cn2)s1", "values": [{"measurement": "IC50", "setting": "MDA-MB-231", "value": 200, "unit": "nM"}, {"measurement": "IC50", "setting": "Histone deacetylase 1", "value": 12, "unit": "nM"}, {"measurement": "IC50", "setting": "MCF7", "value": 70, "unit": "nM"}]}, {"molecule": "O=C(NO)c1ccc(-c2ccc(CNCCOc3ccccc3)cn2)s1", "values": [{"measurement": "IC50", "setting": "MDA-MB-231", "value": 300, "unit": "nM"}, {"measurement": "IC50", "setting": "Histone deacetylase 1", "value": 11, "unit": "nM"}, {"measurement": "IC50", "setting": "MCF7", "value": 110, "unit": "nM"}]}, {"molecule": "O=C(NO)c1ccc(-c2ccc(CNCCc3c[nH]c4ccccc34)cn2)s1", "values": [{"measurement": "IC50", "setting": "Histone deacetylase 1", "value": 8, "unit": "nM"}, {"measurement": "IC50", "setting": "HCT-116", "value": 180, "unit": "nM"}, {"measurement": "IC50", "setting": "MCF7", "value": 120, "unit": "nM"}]}, {"molecule": "O=C(NO)c1ccc(-c2ncccn2)s1", "values": [{"measurement": "IC50", "setting": "Histone deacetylase 1", "value": 186, "unit": "nM"}, {"measurement": "IC50", "setting": "MCF7", "value": 2120, "unit": "nM"}]}, {"molecule": "Cc1ccc(CCNCc2ccc(-c3ccc(C(=O)NO)s3)nc2)cc1", "values": [{"measurement": "IC50", "setting": "Histone deacetylase 1", "value": 14, "unit": "nM"}, {"measurement": "IC50", "setting": "HCT-116", "value": 60, "unit": "nM"}, {"measurement": "IC50", "setting": "MCF7", "value": 60, "unit": "nM"}]}, {"molecule": "O=C(NO)c1ccc(-c2ccc(CN3CCc4ccccc4C3)cn2)s1", "values": [{"measurement": "IC50", "setting": "MDA-MB-231", "value": 860, "unit": "nM"}, {"measurement": "IC50", "setting": "Histone deacetylase 1", "value": 30, "unit": "nM"}, {"measurement": "IC50", "setting": "MCF7", "value": 220, "unit": "nM"}]}, {"molecule": "O=C(NO)c1ccc(-c2ccc(CNCCc3ccc(F)cc3)cn2)s1", "values": [{"measurement": "IC50", "setting": "Histone deacetylase 1", "value": 9, "unit": "nM"}, {"measurement": "IC50", "setting": "HCT-116", "value": 100, "unit": "nM"}, {"measurement": "IC50", "setting": "MCF7", "value": 80, "unit": "nM"}]}, {"molecule": "O=C(NO)c1ccc(-c2ccc(CCNCc3ccccc3)cn2)s1", "values": [{"measurement": "IC50", "setting": "MDA-MB-231", "value": 210, "unit": "nM"}, {"measurement": "IC50", "setting": "Histone deacetylase 1", "value": 9, "unit": "nM"}, {"measurement": "IC50", "setting": "MCF7", "value": 80, "unit": "nM"}]}, {"molecule": "O=C(NO)c1ccc(-c2ccc(CNCc3ccc4c(c3)OCO4)cn2)s1", "values": [{"measurement": "IC50", "setting": "Histone deacetylase 1", "value": 8, "unit": "nM"}, {"measurement": "IC50", "setting": "HCT-116", "value": 70, "unit": "nM"}, {"measurement": "IC50", "setting": "MCF7", "value": 50, "unit": "nM"}]}, {"molecule": "O=C(CCCCCCC(=O)Nc1ccccc1)NO", "note": "[VORINOSTAT]", "values": [{"measurement": "inhibition at 1 µM", "setting": "CYP2C9", "value": 28, "unit": "%"}, {"measurement": "bioavailability", "setting": "[1]; mouse", "value": 14, "unit": "%"}, {"measurement": "bioavailability", "setting": "[1]; rat", "value": 16, "unit": "%"}, {"measurement": "inhibition at 1 µM", "setting": "CYP1A2", "value": 14, "unit": "%"}, {"measurement": "Hepatocyte stability", "setting": "[2]; human", "value": 3, "unit": "uL/min/10e6 cells"}, {"measurement": "Hepatocyte stability", "setting": "[2]; rat", "value": 12, "unit": "uL/min/10e6 cells"}, {"measurement": "half-life", "setting": "[3]; mouse", "value": 48, "unit": "min"}, {"measurement": "half-life", "setting": "[3]; rat", "value": 42, "unit": "min"}, {"measurement": "AUC", "setting": "[4]", "value": 400, "unit": "ng·h/mL"}, {"measurement": "Papp", "setting": "[5]", "value": 8, "unit": "×10⁻⁶ cm/s"}, {"measurement": "bioavailability", "setting": "[6]", "value": 61, "unit": "%"}, {"measurement": "inhibition at 1 µM", "setting": "CYP2C19", "value": 14, "unit": "%"}, {"measurement": "Vd", "setting": "[7]; mouse", "value": 2.1, "unit": "L/kg"}, {"measurement": "Vd", "setting": "[7]; rat", "value": 1.6, "unit": "L/kg"}, {"measurement": "%R", "setting": "[8]; human", "value": 97, "unit": "%"}, {"measurement": "%R", "setting": "[8]; mouse", "value": 114, "unit": "%"}, {"measurement": "AUC", "setting": "[9]", "value": 200, "unit": "ng·h/mL"}, {"measurement": "inhibition at 1 µM", "setting": "CYP2D6", "value": 8, "unit": "%"}, {"measurement": "AUC", "setting": "[10]", "value": 600, "unit": "ng·h/mL"}, {"measurement": "clearance", "setting": "[11]; mouse", "value": 78, "unit": "mL/min/kg"}, {"measurement": "clearance", "setting": "[11]; rat", "value": 67, "unit": "mL/min/kg"}]}, {"molecule": "Cc1cccc(CCNCc2ccc(-c3ccc(C(=O)NO)s3)nc2)c1", "values": [{"measurement": "IC50", "setting": "Histone deacetylase 1", "value": 9, "unit": "nM"}, {"measurement": "IC50", "setting": "HCT-116", "value": 90, "unit": "nM"}, {"measurement": "IC50", "setting": "MCF7", "value": 60, "unit": "nM"}]}]}
